{"source": "patent US7105695B2", "about": "“Synthesis of combretastatin A-2 prodrugs” (priority 2001, dated 2006)", "key": {"[1]": {"system": "NCI 60-cell screen", "assay": "NCI 60-cell screen", "assay_type": "cell-based, human", "conditions": "mean ± SE, read-out: mean-panel GI50"}, "[2]": {"conditions": "25° C."}, "[3]": {"system": "BXPC-3", "assay": "Human cancer cell line growth inhibition, pancreas BXPC-3", "assay_type": "cell-based", "conditions": "BXPC-3 human cancer cell line"}, "[4]": {"system": "MCF-7", "assay": "Human cancer cell line growth inhibition, breast MCF-7", "assay_type": "cell-based", "conditions": "MCF-7 human cancer cell line"}, "[5]": {"system": "Neisseria gonorrhoeae", "assay": "Broth microdilution susceptibility assay, Neisseria gonorrhoeae", "assay_type": "cell-based", "from_the_text": "(§1) Compounds were screened against the bacteria Stenotrophomonas maltophilia, Micrococcus luteus, Staphylococcus aureus, Escherichia coli, Enterobacter cloacae, Enterococcus faecalis, Streptococcus pneumoniae, Neisseria gonorrhoeae, and the fungi Candida albicans and Cryptococcus neoformans, according to established broth microdilution susceptibility assays (NCCLS approved standard M7-A4, 1997; NCCLS approved standard M27-A, 1997). The minimum inhibitory concentration was defined as the lowest concentration of compound that inhibited all visible growth of the test organism (optically clear). Assays were repeated on separate days."}, "[6]": {"system": "DU-145", "assay": "Human cancer cell line growth inhibition, prostate DU-145", "assay_type": "cell-based", "conditions": "DU-145 human cancer cell line"}, "[7]": {"system": "KM20L2", "assay": "Human cancer cell line growth inhibition, colon KM20L2", "assay_type": "cell-based"}, "[8]": {"system": "SF5268", "assay": "Human cancer cell line growth inhibition, CNS gliob SF5268", "assay_type": "cell-based"}, "[9]": {"system": "NCI-H460", "assay": "Human cancer cell line growth inhibition, lung-NSC NCI-H460", "assay_type": "cell-based"}, "[10]": {"system": "Cryptococcus neoformans", "assay": "Broth microdilution susceptibility assay, Cryptococcus neoformans", "assay_type": "cell-based", "conditions": "read-out: Minimum inhibitory concentration", "from_the_text": "as §1"}, "[11]": {"assay": "physchem", "conditions": "25 °C, water"}, "[12]": {"system": "Micrococcus luteus", "assay": "Broth microdilution susceptibility assay, Micrococcus luteus", "assay_type": "cell-based", "conditions": "read-out: Minimum inhibitory concentration", "from_the_text": "as §1"}, "[13]": {"system": "Streptococcus pneumoniae", "assay": "Broth microdilution susceptibility assay, Streptococcus pneumoniae", "assay_type": "cell-based", "conditions": "read-out: Minimum inhibitory concentration", "from_the_text": "as §1"}, "[14]": {"system": "bacteria and fungi panel", "assay": "Broth microdilution screen, whole panel of bacteria and fungi", "assay_type": "cell-based", "conditions": "among the compounds screened, Table III", "from_the_text": "as §1"}, "[15]": {"system": "mitosis", "conditions": "compared with the Z-isomer (1a); cited from earlier work"}}, "note": "Like-named read-outs stand apart in the source and are kept apart here."}
{"molecule": "Sodium combretastatin A-2 3′-O-phosphate [Compound 2a]", "values": [{"measurement": "GI50", "setting": "[1]", "result": "165 ± 30.7", "unit": "nM"}, {"measurement": "Solubility in water", "setting": "[2]", "result": 18, "unit": "mg/mL"}, {"measurement": "GI50 Pancreas BXPC-3", "setting": "[3]", "result": 2.1, "unit": "µg/mL"}, {"measurement": "GI50 Breast MCF-7", "setting": "[4]", "result": 0.045, "unit": "µg/mL"}, {"measurement": "Minimum inhibitory concentration", "setting": "[5]", "result": 8, "unit": "µg/mL"}, {"measurement": "GI50 Prostrate DU-145", "setting": "[6]", "result": 0.053, "unit": "µg/mL"}, {"measurement": "GI50 Colon KM20L2", "setting": "[7]", "result": 3.8, "unit": "µg/mL"}, {"measurement": "GI50 CNSGliob SF5268", "setting": "[8]", "result": 0.042, "unit": "µg/mL"}, {"measurement": "GI50 Lung-NSC NCI-H460", "setting": "[9]", "result": 0.41, "unit": "µg/mL"}]}
{"molecule": "COc1ccc(/C=C\\c2cc(OC)c3c(c2)OCO3)cc1O", "note": "[Compound 1a, Combretastatin A-2]", "values": [{"measurement": "GI50", "setting": "[1]; Homo sapiens", "result": "83.3 ± 17.3", "unit": "nM"}, {"measurement": "Solubility in water", "setting": "[2]", "result": "<1", "unit": "mg/mL"}, {"measurement": "MIC", "setting": "[10]", "result": 64, "unit": "µg/mL"}, {"measurement": "GI50", "setting": "[3]", "result": 0.014, "unit": "µg/mL"}, {"measurement": "GI50", "setting": "[4]; MCF7", "result": 4.2, "unit": "ng/mL"}, {"measurement": "MIC", "setting": "[5]; read-out: Minimum inhibitory concentration", "result": 32, "unit": "µg/mL"}, {"measurement": "GI50", "setting": "[6]; read-out: GI50 Prostrate DU-145", "result": 5.4, "unit": "ng/mL"}, {"measurement": "solubility", "setting": "[11]", "result": "< 1000", "unit": "µg/mL"}, {"measurement": "MIC", "setting": "[12]", "result": 64, "unit": "µg/mL"}, {"measurement": "MIC", "setting": "[13]", "result": 64, "unit": "µg/mL"}, {"measurement": "GI50", "setting": "[7]; KM-20L2", "result": 0.47, "unit": "µg/mL"}, {"measurement": "GI50", "setting": "[8]; read-out: GI50 CNSGliob SF5268", "result": 8.3, "unit": "ng/mL"}, {"measurement": "antimicrobial spectrum", "setting": "[14]", "result": "broadest antimicrobial spectra"}, {"measurement": "GI50", "setting": "[9]", "result": 0.043, "unit": "µg/mL"}]}
{"molecule": "COc1ccc(C=Cc2cc(OC)c3c(c2)OCO3)cc1O", "note": "(single isomer, unassigned) [E-isomer of combretastatin A-2]", "values": [{"measurement": "antimitotic activity", "setting": "[15]", "result": "considerably less antimitotic activity"}]}
